Reference: patent US20260102379A1, “Inhibitor of PFKFB2 Kinase Activity and Cellular Glycolysis” (Oklahoma Medical Research Foundation, priority 2024, published 2026)

Target: T1, PFKFB3 (Homo sapiens, UniProt Q16875)
T1 construct: GST (cleaved yes); host or cells: Rosetta cells (bacteria)
Test: PFK-2 kinase activity assay (coupled PPi-PFK assay), recombinant PFKFB3
Type: biochemical
Details: recombinant PFKFB3, concentration course
Protocol: Recombinant Protein Expression: PFKFB2, PFKFB1, and PFKFB3 constructs (Origene) were subcloned into GST expression vector. Mutation of PFKFB2 at K174 to G [3], H259 to A [4], and the double mutant were created using Quickchange methodology. All constructs were transformed into Rosetta cells (Milipore), expressed and induced following standard protocol. Bacteria were harvested via centrifugation and pellets resuspended in 10 mL sonication buffer (50 mM TrisHCl pH 7.5, 10% glycerol, 150 mM NaCl, 10 mM Imidazole, 10 uL 1M DTT, and 1 protease inhibitor tablet). Cells were sonicated (power lvl 5, 45 s, 4×, QSonica) at 4° C. and spun 10 krpm for 10 min at 4° C. to collect protein lysate. […] Protein concentration was determined by Nanodrop (Thermo).
The resultant F-2,6-BP levels were determined by pyrophosphate-fructose-6-phosphate phosphotransferase (PPi-PFK) activity. After the preincubation phase, the F-2,6-BP/PFK2 mixture was diluted 10× by 50 mM pH 8.0 Tris assay buffer, supplemented with 5 mM Mg^2+, 0.5 mM PPi and 1 mM F-6-P. The PPi-PFK activity was measured as the rate of NADH oxidation (ε340=6200 M^−1 cm^−1) following the addition of 150 μM NADH to a mixture of excess PPi-PFK, 0.1 μg/mL triosephosphate isomerase, 10 μg/mL glycerol-3-phosphate dehydrogenase, and 0.01 U/mL aldolase. […]

T1 sequence (Q16875 whole entry, species assumed): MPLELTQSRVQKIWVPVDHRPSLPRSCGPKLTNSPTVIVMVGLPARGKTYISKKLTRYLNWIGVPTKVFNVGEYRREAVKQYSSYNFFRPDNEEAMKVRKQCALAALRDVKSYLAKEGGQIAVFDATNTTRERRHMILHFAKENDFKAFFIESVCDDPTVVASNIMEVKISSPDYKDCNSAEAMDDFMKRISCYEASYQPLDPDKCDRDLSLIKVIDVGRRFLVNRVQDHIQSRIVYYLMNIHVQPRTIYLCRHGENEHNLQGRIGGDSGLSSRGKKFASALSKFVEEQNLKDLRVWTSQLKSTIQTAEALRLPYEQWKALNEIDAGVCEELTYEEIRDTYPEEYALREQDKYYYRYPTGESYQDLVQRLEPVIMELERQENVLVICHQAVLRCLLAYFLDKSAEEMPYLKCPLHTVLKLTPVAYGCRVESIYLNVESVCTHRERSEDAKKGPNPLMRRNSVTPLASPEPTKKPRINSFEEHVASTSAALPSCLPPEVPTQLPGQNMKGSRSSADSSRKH

SMILES | IC50
COc1ccccc1Nc1nnc(S)s1 [B2, 5-[(2-methoxyphenyl)amino]-1,3,4-thiadiazole-2-thiol] | 11.9 µM
O=C(/C=C/c1ccc2ccc(C(F)(F)F)cc2n1)c1ccncc1 [PFK158] | 8.94 µM
